Measurements reported in patent US9428503B2, “Imidazo[4,5-c]quinolin-2-one compounds and their use in treating Cancer” (AstraZeneca AB, priority 2014, dated 2016).
Several values for one entry are separate records, joined by “and”; a condition that tells them apart may be missing. Identical values can stand only once. Counter-ions that a name gives are not always drawn.

Columns and labels:
Format in all cases: cell-based
mTOR = mTOR (Homo sapiens (Human), UniProt P42345); test: Assay d) mTOR cellular potency assay (phospho-AKT Ser473 in MDA-MB-468 cells); conditions: MDA-MB-468 cells, phospho-AKT Ser473, 2 h; geometric mean where repeated; read-out: Assay d) mTOR Cell IC50
ATR kinase = ATR kinase (Homo sapiens (Human), UniProt Q13535); test: Assay b) ATR cellular potency assay (pChk1 Ser345 in HT29 cells treated with 4NQO); conditions: HT29 cells, pChk1 Ser345 after 4NQO; geometric mean where repeated; read-out: Assay b) ATR Cell IC50
PI3K-α = PI3K-α (Homo sapiens, UniProt P42336); test: Assay c) PI3K cellular potency assay (phospho-Akt T308 ELISA in BT474 cells); conditions: BT474 cells, phospho-Akt T308, 2 h; geometric mean where repeated; read-out: Assay c) PI3Kα Cell IC50
ATM kinase = ATM kinase (Homo sapiens (Human), UniProt Q13315); test: Assay a) ATM cellular potency assay (pATM Ser1981 in X-ray irradiated HT29 cells); conditions: HT29 cells, pATM Ser1981 after X-ray irradiation; geometric mean where repeated; read-out: Assay a) ATM Cell IC50

ATR kinase, sequence (Q13535 whole entry): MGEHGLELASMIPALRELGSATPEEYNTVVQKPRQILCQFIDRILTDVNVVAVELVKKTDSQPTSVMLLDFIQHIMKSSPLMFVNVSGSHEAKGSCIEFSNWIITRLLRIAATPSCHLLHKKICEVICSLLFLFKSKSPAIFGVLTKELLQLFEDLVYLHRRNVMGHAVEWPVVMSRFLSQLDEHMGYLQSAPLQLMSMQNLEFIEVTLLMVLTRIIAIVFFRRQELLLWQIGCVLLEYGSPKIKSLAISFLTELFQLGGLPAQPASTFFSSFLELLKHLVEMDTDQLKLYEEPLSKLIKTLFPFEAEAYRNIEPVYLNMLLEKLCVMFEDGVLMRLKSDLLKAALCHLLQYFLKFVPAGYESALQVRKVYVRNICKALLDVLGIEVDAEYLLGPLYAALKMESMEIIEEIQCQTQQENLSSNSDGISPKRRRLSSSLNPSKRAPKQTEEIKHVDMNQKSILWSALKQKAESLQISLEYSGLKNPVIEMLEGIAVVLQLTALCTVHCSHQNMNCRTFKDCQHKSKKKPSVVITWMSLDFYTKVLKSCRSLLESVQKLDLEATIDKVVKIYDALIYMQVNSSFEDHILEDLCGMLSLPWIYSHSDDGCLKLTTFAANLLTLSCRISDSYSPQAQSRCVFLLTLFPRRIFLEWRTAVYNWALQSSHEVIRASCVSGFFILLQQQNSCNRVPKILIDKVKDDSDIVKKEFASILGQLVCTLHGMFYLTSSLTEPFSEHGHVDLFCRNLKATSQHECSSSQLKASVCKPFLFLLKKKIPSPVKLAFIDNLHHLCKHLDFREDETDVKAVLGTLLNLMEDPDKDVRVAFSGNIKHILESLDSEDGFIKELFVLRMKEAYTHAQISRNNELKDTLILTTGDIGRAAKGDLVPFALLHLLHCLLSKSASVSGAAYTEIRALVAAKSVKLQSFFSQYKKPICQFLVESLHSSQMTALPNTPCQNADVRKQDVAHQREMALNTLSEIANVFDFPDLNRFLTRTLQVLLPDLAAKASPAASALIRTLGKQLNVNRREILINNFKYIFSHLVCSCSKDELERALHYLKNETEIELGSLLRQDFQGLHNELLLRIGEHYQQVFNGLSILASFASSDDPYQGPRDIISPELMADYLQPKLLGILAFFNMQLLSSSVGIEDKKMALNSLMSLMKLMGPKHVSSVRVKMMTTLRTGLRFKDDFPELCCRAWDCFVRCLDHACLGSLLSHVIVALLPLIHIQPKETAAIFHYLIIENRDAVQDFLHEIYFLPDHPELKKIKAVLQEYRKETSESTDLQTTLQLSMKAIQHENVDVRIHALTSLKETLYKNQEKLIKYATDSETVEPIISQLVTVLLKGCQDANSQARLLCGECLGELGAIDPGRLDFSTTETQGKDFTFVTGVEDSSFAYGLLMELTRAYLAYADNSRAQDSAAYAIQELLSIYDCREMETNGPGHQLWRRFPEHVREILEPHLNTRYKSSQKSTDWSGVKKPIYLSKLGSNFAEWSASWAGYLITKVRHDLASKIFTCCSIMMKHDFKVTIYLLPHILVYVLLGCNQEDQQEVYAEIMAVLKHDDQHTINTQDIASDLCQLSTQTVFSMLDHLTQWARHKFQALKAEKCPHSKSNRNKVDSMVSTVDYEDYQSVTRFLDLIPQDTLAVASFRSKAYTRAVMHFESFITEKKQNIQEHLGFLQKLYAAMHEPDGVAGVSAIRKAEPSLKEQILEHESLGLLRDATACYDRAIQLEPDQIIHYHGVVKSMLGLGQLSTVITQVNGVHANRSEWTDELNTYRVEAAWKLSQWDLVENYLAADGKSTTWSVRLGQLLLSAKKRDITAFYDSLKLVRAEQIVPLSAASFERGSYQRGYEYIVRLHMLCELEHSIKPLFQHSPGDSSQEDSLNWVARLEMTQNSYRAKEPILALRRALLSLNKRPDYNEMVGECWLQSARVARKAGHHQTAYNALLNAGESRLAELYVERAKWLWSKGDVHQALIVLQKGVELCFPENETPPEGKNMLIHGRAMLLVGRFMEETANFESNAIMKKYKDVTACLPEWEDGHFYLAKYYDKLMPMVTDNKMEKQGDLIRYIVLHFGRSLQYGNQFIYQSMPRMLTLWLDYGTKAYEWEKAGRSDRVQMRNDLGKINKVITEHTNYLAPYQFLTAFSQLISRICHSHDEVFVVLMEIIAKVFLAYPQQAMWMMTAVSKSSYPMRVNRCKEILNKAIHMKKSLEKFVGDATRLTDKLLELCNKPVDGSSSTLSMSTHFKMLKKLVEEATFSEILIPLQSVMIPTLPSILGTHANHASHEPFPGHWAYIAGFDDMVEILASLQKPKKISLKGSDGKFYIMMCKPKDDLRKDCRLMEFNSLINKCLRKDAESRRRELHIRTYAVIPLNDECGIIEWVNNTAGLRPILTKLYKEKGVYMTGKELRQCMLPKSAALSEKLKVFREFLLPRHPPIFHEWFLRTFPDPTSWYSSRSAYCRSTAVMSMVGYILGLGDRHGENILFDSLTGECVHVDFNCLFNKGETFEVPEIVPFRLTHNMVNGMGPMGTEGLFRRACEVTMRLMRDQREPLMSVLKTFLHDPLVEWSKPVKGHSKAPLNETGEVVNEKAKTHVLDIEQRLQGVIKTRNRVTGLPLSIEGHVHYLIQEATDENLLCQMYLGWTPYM
ATR kinase, sequence (Q8WXE1 whole entry partner): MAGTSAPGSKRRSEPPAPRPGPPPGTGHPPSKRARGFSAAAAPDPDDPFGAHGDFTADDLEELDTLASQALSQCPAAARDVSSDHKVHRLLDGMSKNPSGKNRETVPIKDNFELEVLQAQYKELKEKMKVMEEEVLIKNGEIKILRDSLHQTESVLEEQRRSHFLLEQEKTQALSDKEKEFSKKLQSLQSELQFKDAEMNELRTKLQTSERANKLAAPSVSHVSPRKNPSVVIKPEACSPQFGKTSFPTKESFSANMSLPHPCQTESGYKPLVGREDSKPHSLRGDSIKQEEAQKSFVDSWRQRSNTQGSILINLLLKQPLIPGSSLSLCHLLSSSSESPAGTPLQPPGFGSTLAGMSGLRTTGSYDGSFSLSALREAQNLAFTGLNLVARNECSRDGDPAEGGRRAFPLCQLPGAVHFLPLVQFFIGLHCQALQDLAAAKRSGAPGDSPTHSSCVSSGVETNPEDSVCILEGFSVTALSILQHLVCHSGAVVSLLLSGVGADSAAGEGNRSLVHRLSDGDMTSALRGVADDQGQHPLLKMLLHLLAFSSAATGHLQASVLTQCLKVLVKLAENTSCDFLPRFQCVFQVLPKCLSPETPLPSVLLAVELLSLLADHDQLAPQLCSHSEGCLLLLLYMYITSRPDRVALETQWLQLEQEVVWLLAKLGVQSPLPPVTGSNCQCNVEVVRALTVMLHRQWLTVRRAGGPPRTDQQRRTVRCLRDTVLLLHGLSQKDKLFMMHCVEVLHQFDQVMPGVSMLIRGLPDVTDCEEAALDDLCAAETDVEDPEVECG
PI3K-α, sequence (P42336 whole entry, looked up): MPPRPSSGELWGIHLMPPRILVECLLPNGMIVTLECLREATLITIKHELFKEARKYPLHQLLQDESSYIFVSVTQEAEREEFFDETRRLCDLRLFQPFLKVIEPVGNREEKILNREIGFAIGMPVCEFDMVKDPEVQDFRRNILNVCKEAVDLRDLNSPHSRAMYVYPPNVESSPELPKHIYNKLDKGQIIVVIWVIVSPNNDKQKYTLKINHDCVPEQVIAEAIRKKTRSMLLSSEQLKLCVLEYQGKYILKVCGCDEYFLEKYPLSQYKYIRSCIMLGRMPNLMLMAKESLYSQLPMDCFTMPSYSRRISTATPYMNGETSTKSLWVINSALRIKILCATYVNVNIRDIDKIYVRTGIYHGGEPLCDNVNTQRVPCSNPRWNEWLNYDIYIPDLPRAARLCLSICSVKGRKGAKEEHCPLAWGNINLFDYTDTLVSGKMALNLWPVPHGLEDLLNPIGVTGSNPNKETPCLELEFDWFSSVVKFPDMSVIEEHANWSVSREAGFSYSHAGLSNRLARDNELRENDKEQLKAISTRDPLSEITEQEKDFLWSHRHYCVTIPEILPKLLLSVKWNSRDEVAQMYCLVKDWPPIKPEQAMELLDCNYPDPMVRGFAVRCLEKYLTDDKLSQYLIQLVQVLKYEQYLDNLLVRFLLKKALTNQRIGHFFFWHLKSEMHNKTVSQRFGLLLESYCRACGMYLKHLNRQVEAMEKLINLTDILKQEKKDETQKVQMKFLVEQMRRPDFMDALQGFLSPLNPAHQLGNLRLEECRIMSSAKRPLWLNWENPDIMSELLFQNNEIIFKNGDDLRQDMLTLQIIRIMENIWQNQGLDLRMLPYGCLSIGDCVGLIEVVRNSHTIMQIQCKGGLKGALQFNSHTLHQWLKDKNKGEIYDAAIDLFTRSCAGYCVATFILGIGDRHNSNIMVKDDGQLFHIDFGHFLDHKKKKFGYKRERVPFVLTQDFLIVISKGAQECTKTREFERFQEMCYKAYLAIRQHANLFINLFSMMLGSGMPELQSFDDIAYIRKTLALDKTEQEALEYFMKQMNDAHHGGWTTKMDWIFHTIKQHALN

SMILES	IC50 (mTOR)	IC50 (ATR kinase)	IC50 (PI3K-α)	IC50 (ATM kinase)
CN(C)CCCOc1ccc(-c2ccc3ncc4c(c3c2)n([C@@H]2CCCOC2)c(=O)n4C)cn1 [Example 16, 8-[6-(3-dimethylaminopropoxy)pyridin-3-yl]-3-methyl-1-[(3R)-oxan-3-yl]imidazo[5,4-c]quinolin-2-one]	714 nM	> 22800 nM	311 nM	–
CN(C)CCCOc1ccc(-c2ccc3ncc4c(c3c2)n(C2(C)CCOCC2)c(=O)n4C)cn1 [Example 7, 8-[6-(3-dimethylaminopropoxy)pyridin-3-yl]-3-methyl-1-(4-methyloxan-4-yl)imidazo[5,4-c]quinolin-2-one]	266 nM	10800 nM	541 nM	0.96 nM
Cn1c(=O)n([C@H]2CCCOC2)c2c3cc(-c4ccc(OCCCN5CCCC5)nc4F)ccc3ncc21 [Example 61, 8-[2-Fluoro-6-(3-pyrrolidin-1-ylpropoxy)-3-pyridyl]-3-methyl-1-[(3S)-tetrahydropyran-3-yl]imidazo[4,5-c]quinolin-2-one]	–	> 30000 nM	> 16200 nM	0.554 nM
CO[C@H]1C[C@@H](n2c(=O)n(C)c3cnc4cc(F)c(-c5ccc(OCCCN6CCCC6)nc5)cc4c32)C1 [Example 27, 7-Fluoro-1-(cis-3-methoxycyclobutyl)-3-methyl-8-[6-(3-pyrrolidin-1-ylpropoxy)pyridin-3-yl]imidazo[4,5-c]quinolin-2-one]	> 17500 nM	> 23300 nM	> 29800 nM	–
CO[C@@H]1CC[C@H](n2c(=O)n(C)c3cnc4cc(F)c(-c5ccc(OCCCN(C)C)nc5)cc4c32)C1 [Example 71, 8-[6-[3-(dimethylamino)propoxy]-3-pyridyl]-7-fluoro-1-[(1S,3R)-3-methoxycyclopentyl]-3-methyl-imidazo[4,5-c]quinolin-2-one]	15200 nM	> 30000 nM	> 11400 nM	1.45 nM
Cn1c(=O)n([C@@H]2CCCOC2)c2c3cc(-c4ccc(OCCCN5CCC5)nc4)ccc3ncc21 [Example 34, 8-[6-[3-(azetidin-1-yl)propoxy]pyridin-3-yl]-3-mehtyl-1-[(3R)-oxan-3-yl]imidazo[5,4-c]quinolin-2-one]	505 nM	> 16900 nM	402 nM	0.84 nM
Cn1c(=O)n(C2CCC2)c2c3cc(-c4ccc(OCCCN5CCCCC5)nc4)ccc3ncc21 [Example 57, 1-cyclobutyl-3-methyl-8-[6-[3-(1-piperidyl)propoxy]-3-pyridyl]imidazo[4,5-c]quinolin-2-one trifluoroacetic acid salt]	5770 nM	> 30000 nM	> 14300 nM	0.434 nM
CO[C@H]1C[C@@H](n2c(=O)n(C)c3cnc4ccc(-c5ccc(OCCCN(C)C)nc5F)cc4c32)C1 [Example 18, 8-[6-(3-dimethylaminopropoxy)-2-fluoropyridin-3-yl]-1-(cis-3-methoxycyclobutyl)-3-methylimidazo[4,5-c]quinolin-2-one]	3780 nM	> 30000 nM	2730 nM	–
Cn1c(=O)n([C@H]2C[C@@H](O)C2)c2c3cc(-c4ccc(OCCCN5CCC5)nc4)ccc3ncc21 [Example 14, 8-[6-[3-(azetidin-1-yl)propoxy]pyridin-3-yl]-1-(cis-3-hydroxycyclobutyl)-3-methylimidazo[4,5-c]quinolin-2-one]	1040 nM	> 30000 nM	616 nM	1.05 nM
Cn1c(=O)n([C@H]2CCOC2)c2c3cc(-c4ccc(OCCCN5CCCCC5)nc4)ccc3ncc21 [Example 55, 3-methyl-8-[6-[3-(1-piperidyl)propoxy]-3-pyridyl]-1-[(3S)-tetrahydrofuran-3-yl]imidazo[4,5-c]quinolin-2-one]	–	> 16100 nM	–	0.493 nM
Cn1c(=O)n(C2CCC2)c2c3cc(-c4ccc(OCCCN5CCCC5)nc4)ccc3ncc21 [Example 58, 1-cyclobutyl-3-methyl-8-[6-(3-pyrrolidin-1-ylpropoxy)-3-pyridyl]imidazo[4,5-c]quinolin-2-one]	7290 nM	> 28100 nM	> 9560 nM	0.31 nM
CN(C)CCCOc1ccc(-c2ccc3ncc4c(c3c2)n(C2COC2)c(=O)n4C)c(F)n1 [Example 52, 8-[6-[3-(dimethylamino)propoxy]-2-fluoro-3-pyridyl]-3-methyl-1-(oxetan-3-yl)imidazo[4,5-c]quinolin-2-one methanesulfonic acid salt]	12100 nM	> 30000 nM	7200 nM	–
CO[C@@H]1CC[C@@H](n2c(=O)n(C)c3cnc4ccc(-c5ccc(OCCCN6CCCC6)nc5)cc4c32)C1 [Example 67, 1-[(1R,3R)-3-methoxycyclopentyl]-3-methyl-8-[6-(3-pyrrolidin-1-ylpropoxy)-3-pyridyl]imidazo[4,5-c]quinolin-2-one]	996 nM	15200 nM	> 2850 nM	–
CO[C@@H]1CC[C@@H](n2c(=O)n(C)c3cnc4cc(F)c(-c5ccc(OCCCN(C)C)nc5)cc4c32)C1 [Example 62, 8-[6-[3-(Dimethylamino)propoxy]-3-pyridyl]-7-fluoro-1-[(1R,3R)-3-methoxycyclopentyl]-3-methyl-imidazo[4,5-c]quinolin-2-one]	> 30000 nM	–	–	0.507 nM
Cn1c(=O)n([C@@H]2CCCOC2)c2c3cc(-c4ccc(OCCCN5CCCC5)nc4)ccc3ncc21 [Example 59, 3-methyl-8-[6-(3-pyrrolidin-1-ylpropoxy)-3-pyridyl]-1-[(3R)-tetrahydropyran-3-yl]imidazo[4,5-c]quinolin-2-one]	610 nM	> 19100 nM	264 nM	–
CN(C)CCCOc1ccc(-c2ccc3ncc4c(c3c2)n([C@@H]2CCOC2)c(=O)n4C)c(F)n1 [Example 50]	4480 nM	> 30000 nM	–	1.44 nM
CN(C)CCCOc1ccc(-c2ccc3ncc4c(c3c2)n(C2CCC2)c(=O)n4C)cn1 [Example 46, 1-cyclobutyl-8-[6-[3-(dimethylamino)propoxy]-3-pyridyl]-3-methyl-imidazo[4,5-c]quinolin-2-one methanesulfonic acid salt]	–	> 26000 nM	794 nM	3.15 nM
CN(C)CCCOc1ccc(-c2ccc3ncc4c(c3c2)n([C@H]2CCOC2)c(=O)n4C)c(F)n1 [Example 49, 8-[6-[3-(dimethylamino)propoxy]-2-fluoro-3-pyridyl]-3-methyl-1-[(3S)-tetrahydrofuran-3-yl]imidazo[4,5-c]quinolin-2-one methanesulfonic acid salt]	3760 nM	> 30000 nM	–	1.34 nM
CO[C@H]1CC[C@H](n2c(=O)n(C)c3cnc4ccc(-c5ccc(OCCCN6CCCC6)nc5)cc4c32)C1 [Example 66, 1-[(1S,3S)-3-methoxycyclopentyl]-3-methyl-8-[6-(3-pyrrolidin-1-ylpropoxy)-3-pyridyl]imidazo[4,5-c]quinolin-2-one]	3320 nM	7850 nM	1490 nM	–
Cn1c(=O)n([C@H]2CCCOC2)c2c3cc(-c4ccc(OCCCN5CCCC5)nc4)ccc3ncc21 [Example 29, 3-methyl-1-[(3S)-oxan-3-yl]-8-[6-(3-pyrrolidin-1-ylpropoxy)pyridin-3-yl]imidazo[5,4-c]quinolin-2-one]	605 nM	19000 nM	1650 nM	–
Cn1c(=O)n([C@@H]2CCOC2)c2c3cc(-c4ccc(OCCCN5CCCCC5)nc4)ccc3ncc21 [Example 54, 3-methyl-8-[6-[3-(1-piperidyl)propoxy]-3-pyridyl]-1-[(3R)-tetrahydrofuran-3-yl]imidazo[4,5-c]quinolin-2-one methane sulfonic acid salt]	–	> 27100 nM	–	1.1 nM and 0.715 nM
CO[C@H]1C[C@@H](n2c(=O)n(C)c3cnc4ccc(-c5ccc(OCCCN6CCCC6)nc5)cc4c32)C1 [Example 28, 1-(cis-3-methoxycyclobutyl)-3-methyl-8-[6-(3-pyrroldin-1-ylpropoxy)pyridin-3-yl]imidazo[4,5-c]quinolin-2-one]	2770 nM	> 22800 nM	–	0.176 nM
CO[C@H]1C[C@@H](n2c(=O)n(C)c3cnc4ccc(-c5ccc(OCCCN6CCCCC6)nc5)cc4c32)C1 [Example 33, 1-(cis-3-methoxycyclobutyl)-3-methyl-8-[6-(3-piperidin-1-ylpropoxy)pyridin-3-yl]imidazo[4,5-c]quinolin-2-one]	2870 nM	–	12400 nM	–
CO[C@H]1CC[C@H](n2c(=O)n(C)c3cnc4ccc(-c5ccc(OCCCN(C)C)nc5F)cc4c32)C1 [Example 69, 8-[6-[3-(dimethylamino)propoxy]-2-fluoro-3-pyridyl]-1-[(1S,3S)-3-methoxycyclopentyl]-3-methyl-imidazo[4,5-c]quinolin-2-one]	–	> 30000 nM	> 2770 nM	0.324 nM
Cn1c(=O)n(C2CCOCC2)c2c3cc(-c4ccc(OCCCN5CCCC5)nc4)ccc3ncc21 [Example 30, 3-methyl-1-(oxan-4-yl)-8-[6-(3-pyrrolidin-1-ylpropoxy)pyridin-3-yl]imidazo[5,4-c]quinolin-2-one]	1570 nM	19000 nM	2330 nM	–
CN(C)CCCOc1ccc(-c2ccc3ncc4c(c3c2)n([C@H]2CCCOC2)c(=O)n4C)cn1 [Example 17, 8-[6-(3-dimethylaminopropoxy)pyridin-3-yl]-3-methyl-1-[(3S)-oxan-3-yl]imidazo[5,4-c]quinolin-2-one]	1470 nM	> 30000 nM	968 nM	–
